Source: patent US4946854A, “3-aminobenzoylphenylureas useful for controlling parasites and insects that attack domestic animals and livestock” (priority 1987, dated 1990)
≈ marks a conversion by molar mass, not a printed value. Where two headings read alike, the source gives them in different places. One block for each compound: values may come before it.

Tests used:
[1] = test system: Lucilia sericata and L. cuprina; test: Action against blowflies; format: in vivo; conditions: 6.4 ppm, after at the most 96 h
Description: Freshly deposited eggs of the blowfly species Lucilia sericata and L. cuprina are placed in small portions (30 to 50 eggs) into each of a number of test tubes in which 4 ml of nutrient medium have been mixed with 1 ml of test solution at the intermediate dilution of the active ingredient necessary to obtain the final concentration. After inoculating the culture medium, the test tubes are sealed with cotton wool plugs and are then incubated in an incubator at 30° C. for 4 days. In the untreated medium, larvae about 1 cm in length (stage 3) have developed by the end of this 4-day period. When a compound is active the larvae are by the end of this period either dead or distinctly retarded. Four tests are carried out simultaneously with concentrations of 100, 40, 16 and 6.4 ppm, respectively. The activity is measured according to the lowest concentration that is still fully active (LC 100).

[2] = test system: Ctenocephalides felis; test: Action against fleas (infested dogs, oral); format: in vivo, Ctenocephalides felis (on dogs); conditions: 50 mg kg-1 day-1, dogs
Description: Dogs having the proven ability to support a flea population permanently are infested with 100 cat fleas Ctenocephalides felis Bouche. The infested dogs are then divided into 3 groups of 2 animals. […] The test compound is administered in the form of an aqueous suspension (by means of a syringe). The third group of animals is not treated and serves as a control group.
After 3, 8 and 10 days, the eggs of the fleas are collected from the paper which is under the dog cages. The eggs are counted, placed on a medium suitable for the culture of larvae and incubated. A count is made of the resulting pupae and fully grown fleas.

[3] = Physico-chemical characteristics: solubilities; format: physicochemical
[4] = Bio-availability: blood plasma level after injection of calves; format: in vivo
Description: As a measure of bio-availability, the blood plasma level of the compounds is determined on several days after the injection of calves with, in each case, 1 mg of compound/kg body weight.

[5] = hexane, organic solvent or mixture, read-out: solubility in hexane
[6] = water, read-out: solubility in water

SMILES: Nc1ccc(F)c(C(=O)NC(=O)Nc2ccc(Cl)c(Oc3ncc(C(F)(F)C(F)(Cl)Cl)cc3Cl)c2)c1F [Compound 1.9]
mortality of the larvae [1]: 100%

SMILES: Nc1ccc(F)c(C(=O)NC(=O)Nc2cccc(Sc3ncc(C(F)(F)F)cc3Cl)c2)c1F [Compound 1.12]
activity [2]: more than 50%

SMILES: Nc1ccc(F)c(C(=O)NC(=O)Nc2ccc(F)c(Oc3ncc(C(F)(F)F)cc3Cl)c2)c1F [Compound 1.6, N-[3-(3-chloro-5-trifluoromethylpyridyl-2-oxy)-4-fluorophenyl]-N'-[2,6-difluoro-3-aminobenzoyl]-urea]
activity [2]: more than 50%

SMILES: O=C(NC(=O)c1c(F)cccc1F)Nc1ccc(Cl)c(Oc2ncc(C(F)(F)F)cc2Cl)c1 [(A)]
solubility [3, 5]: 3 µg/mL (≈ 5.93 µM)
solubility in isopropanol [3]: 0.09%
solubility in n-octanol [3]: 0.065%
solubility [3, 6]: 0.02 µg/mL (≈ 0.0395 µM)
concentration at 24 h ([4]; bovine, plasma, 1 mg/kg, day 1, calf 1, 1 mg/kg injection): 7 ng/mL
concentration at 24 h ([4]; bovine, plasma, 1 mg/kg, day 1, calf 2, 1 mg/kg injection): 5 ng/mL
concentration at 168 h ([4]; bovine, plasma, 1 mg/kg, day 7, calf 1, 1 mg/kg injection): 3 ng/mL
concentration at 168 h ([4]; bovine, plasma, 1 mg/kg, day 7, calf 2, 1 mg/kg injection): 4 ng/mL
concentration at 336 h ([4]; bovine, plasma, 1 mg/kg, day 14, calf 1, 1 mg/kg injection): 4 ng/mL
concentration at 336 h ([4]; bovine, plasma, 1 mg/kg, day 14, calf 2, 1 mg/kg injection): 9 ng/mL
concentration at 504 h ([4]; bovine, plasma, 1 mg/kg, day 21, calf 1, 1 mg/kg injection): 7 ng/mL
concentration at 504 h ([4]; bovine, plasma, 1 mg/kg, day 21, calf 2, 1 mg/kg injection): 10 ng/mL
concentration at 672 h ([4]; bovine, plasma, 1 mg/kg, day 28, calf 1, 1 mg/kg injection): 6 ng/mL
concentration at 672 h ([4]; bovine, plasma, 1 mg/kg, day 28, calf 2, 1 mg/kg injection): 5 ng/mL
concentration at 840 h ([4]; bovine, plasma, 1 mg/kg, day 35, calf 1, 1 mg/kg injection): 6 ng/mL
concentration at 840 h ([4]; bovine, plasma, 1 mg/kg, day 35, calf 2, 1 mg/kg injection): 10 ng/mL
concentration at 1008 h ([4]; bovine, plasma, 1 mg/kg, day 42, calf 1, 1 mg/kg injection): 9 ng/mL
concentration at 1008 h ([4]; bovine, plasma, 1 mg/kg, day 42, calf 2, 1 mg/kg injection): 6 ng/mL
concentration at 1176 h ([4]; bovine, plasma, 1 mg/kg, day 49, calf 1, 1 mg/kg injection): 4 ng/mL
concentration at 1176 h ([4]; bovine, plasma, 1 mg/kg, day 49, calf 2, 1 mg/kg injection): 4 ng/mL
concentration at 1344 h ([4]; bovine, plasma, 1 mg/kg, day 56, calf 1, 1 mg/kg injection): 5 ng/mL
concentration at 1344 h ([4]; bovine, plasma, 1 mg/kg, day 56, calf 2, 1 mg/kg injection): 5 ng/mL
concentration at 1512 h ([4]; bovine, plasma, 1 mg/kg, day 63, calf 1, 1 mg/kg injection): 4 ng/mL
concentration at 1512 h ([4]; bovine, plasma, 1 mg/kg, day 63, calf 2, 1 mg/kg injection): 6 ng/mL
concentration at 1680 h ([4]; bovine, plasma, 1 mg/kg, day 70, calf 1, 1 mg/kg injection): 7 ng/mL
concentration at 1680 h ([4]; bovine, plasma, 1 mg/kg, day 70, calf 2, 1 mg/kg injection): 5 ng/mL
concentration at 1848 h ([4]; bovine, plasma, 1 mg/kg, day 77, calf 1, 1 mg/kg injection): 5 ng/mL
concentration at 1848 h ([4]; bovine, plasma, 1 mg/kg, day 77, calf 2, 1 mg/kg injection): 2 ng/mL
concentration at 2016 h ([4]; bovine, plasma, 1 mg/kg, day 84, calf 1, 1 mg/kg injection): 7 ng/mL
concentration at 2016 h ([4]; bovine, plasma, 1 mg/kg, day 84, calf 2, 1 mg/kg injection): 7 ng/mL
Cmax ([4]; bovine, plasma, calves, injection, 1 mg/kg, read-out: maximum concentration in the blood (plasma)): 7 to 10 ng/mL
persistence of blood plasma level ([4]; level of 7 to 10 ppb, calves, 1 mg/kg): maintained over a relatively long period

solubility [3, 5]: ~60 µg/mL (≈ 115 µM)
solubility in isopropanol [3]: 0.30%
solubility in n-octanol [3]: 0.56%
solubility [3, 6]: 0.11 µg/mL (≈ 0.211 µM)
concentration at 24 h ([4]; bovine, plasma, 1 mg/kg, day 1, calf 3, 1 mg/kg injection): 126 ng/mL
concentration at 24 h ([4]; bovine, plasma, 1 mg/kg, day 1, calf 4, 1 mg/kg injection): 185 ng/mL
concentration at 168 h ([4]; bovine, plasma, 1 mg/kg, day 7, calf 3, 1 mg/kg injection): 48 ng/mL
concentration at 168 h ([4]; bovine, plasma, 1 mg/kg, day 7, calf 4, 1 mg/kg injection): 66 ng/mL
concentration at 336 h ([4]; bovine, plasma, 1 mg/kg, day 14, calf 3, 1 mg/kg injection): 16 ng/mL
concentration at 336 h ([4]; bovine, plasma, 1 mg/kg, day 14, calf 4, 1 mg/kg injection): 27 ng/mL
concentration at 504 h ([4]; bovine, plasma, 1 mg/kg, day 21, calf 3, 1 mg/kg injection): 10 ng/mL
concentration at 504 h ([4]; bovine, plasma, 1 mg/kg, day 21, calf 4, 1 mg/kg injection): 12 ng/mL
concentration at 672 h ([4]; bovine, plasma, 1 mg/kg, day 28, calf 3, 1 mg/kg injection): 5 ng/mL
concentration at 672 h ([4]; bovine, plasma, 1 mg/kg, day 28, calf 4, 1 mg/kg injection): 6 ng/mL
concentration at 840 h ([4]; bovine, plasma, 1 mg/kg, day 35, calf 3, 1 mg/kg injection): 2 ng/mL
concentration at 840 h ([4]; bovine, plasma, 1 mg/kg, day 35, calf 4, 1 mg/kg injection): 4 ng/mL
Blood plasma level ([4]; day 42, calf 3, 1 mg/kg injection): 0 ppb
Blood plasma level ([4]; day 42, calf 4, 1 mg/kg injection): 0 ppb
Blood plasma level ([4]; day 49, calf 3, 1 mg/kg injection): 0 ppb
Blood plasma level ([4]; day 49, calf 4, 1 mg/kg injection): 0 ppb
Blood plasma level ([4]; day 56, calf 3, 1 mg/kg injection): 0 ppb
Blood plasma level ([4]; day 56, calf 4, 1 mg/kg injection): 0 ppb
Blood plasma level ([4]; day 63, calf 4, 1 mg/kg injection): 0 ppb
Blood plasma level ([4]; day 70, calf 4, 1 mg/kg injection): 0 ppb
Blood plasma level ([4]; day 77, calf 4, 1 mg/kg injection): 0 ppb
Blood plasma level ([4]; day 84, calf 4, 1 mg/kg injection): 0 ppb
blood plasma values compared with (A) ([4]; very rapidly after administration, calves, 1 mg/kg): higher blood plasma values
SMILES: Nc1ccc(F)c(C(=O)NC(=O)Nc2ccc(Cl)c(Oc3ncc(C(F)(F)F)cc3Cl)c2)c1F [Compound 1.1, N-[3-(3-chloro-5-trifluoromethylpyridyl-2-oxy)-4-chlorophenyl]-N'-[2,6-difluoro-3-aminobenzoyl]-urea]
activity [2]: more than 50%
bio-availability compared with (A) ([4]; calves, injection, 1 mg/kg): distinctly better bio-availability than does compound (A)
excretion compared with (A) ([4]; calves, injection, 1 mg/kg): excreted considerably more rapidly than (A)
reaching of high concentration in the blood plasma ([4]; calves, injection, 1 mg/kg): a high concentration in the blood plasma is reached very rapidly
